Results as given in publication PMC9388626, “STUB1 is an intracellular checkpoint for interferon gamma sensing” (Scientific Reports, 2022).

Columns and labels:
MCF7 cells = experiment: Lumit immunoassay, phospho-Tyr701-STAT1; format: cell-based, human; conditions: MCF7, PTPN2 or STUB1 loss, 30 min
Method: (§1) Parental and CRISPR-edited tumour cells were seeded in a cell density of 12,500 (DU145), 15,000 (PC-3), or 30,000 (MCF7) per well in 384-well plate (Greiner Bio-One, #781080) filled with 25 µl culture media + 10% FBS. After 20–24 h incubation, the cells were treated with recombinant human IFNγ (R&D Systems, #285-IF-100) by adding an equal volume of the complete culture media containing the cytokine. After 30 min of stimulation, the culture media were removed by gentle spin using Blue Washer (BlueCatBio). Lumit immunoassay (Promega, #W1202) was performed according to manufacturer’s instrutions. The assay buffer was supplemented with Halt protease and phosphatase inhibitor cocktail (Thermo Scientific, #78443). The cells were lyzed with 12 µl per well of lysis solution (0.02% digitonin) for 20 min. The cell lystates were probed for 90 min with 12 µl of mixture of primary antibodies, which include anti-STAT1 rabbit antibody (Cell Signaling Technology, #14994), anti-pSTAT1 (Tyr701) mouse antibody (Abcam, ab29045), Lumit anti-mouse antibody-LgBiT (Promega) and Lumit anti-rabbit antibody-SmBiT (Promega). Final concentration of each antibody is 0.15 µg ml^−1. After 2 min incubation in the presence of the Lumit detection reagent (6 µl), the luminescence signals were detected by Infinite M1000 PRO (Tecan).

PC-3 cells [1] = experiment: Lumit immunoassay, phospho-Tyr701-STAT1; format: cell-based, human; conditions: PC-3, PTPN2 or STUB1 loss, 30 min
Method: as §1

DU145 cells [2] = experiment: Lumit immunoassay, phospho-Tyr701-STAT1; format: cell-based, human; conditions: DU145, PTPN2 or STUB1 loss, 30 min
Method: as §1

B16-F10 cells = experiment: Flow cytometry, surface MHC-I on CRISPR-edited cells with IFNγ; format: cell-based, murine
Method: Parental, CRISPR-edited or biologic-overexpressed tumour cells were seeded in a cell density of 60,000 (B16-F10), 150,000 (CT26), 100,000 (A375), or 200,000 (A549) per well in 12-well plate filled with 0.8 ml culture media + 10% FBS. After overnight incubation, the culture media were replaced with 1 ml fresh media supplemented with 10% FBS and the designated concentration of the recombinant mouse IFNγ (R&D Systems, #485-MI-100) or recombinant human IFNγ (R&D Systems, #285-IF-100). […]
Cells were dissociated from the wells with 0.25% trypsin (Gibco, 25200056). After rinsing with 0.5 ml PBS, each sample was stained with the LIVE/DEAD Fixable Aqua dead cell staining solution (Life Technologies, L34957) in 100 µl PBS (1:1000 dilution) for 15 min at 4 °C. After rinsing with 2 × 0.5 ml PBS, each sample was stained with the corresponding primary antibody-dye conjugates diluted in 100 µl Pharmingen stain buffer (BD Biosciences, #554657). After 1 h staining at 4 °C, the cells were rinsed with 2 × 2 ml Pharmingen stain buffer and fixed with 4.21% (w/w) formaldehyde (BD Biosciences, #554655). Cells were analyzed on LSRFortessa X-20 (BD Biosciences) with appropiate fluorescence compensation. The data were analyzed using FlowJo. Cells were gated based on FSC and SSC. Single cells were selected using FSC-A and FSC-H and viable cells were selected using LIVE/DEAD signal. Primary antibodies used were: H-2K^b/H-2D^b (FITC, Biolegend, #114606, 1:50 dilution), HLA-A,B,C (FITC, Biolegend, #311404, 1:100 dilution), mouse IFNGR1 (PE, Invitrogen, #12-1191-82, 1:50 dilution), human IFNGR1 (PE, Miltenyi, #130-125-851, 1:50 dilution), mouse IL1R1 (APC, Biolegend, #113509, 1:20 dilution), mouse IL6R (APC, Biolegend, #115812, 1:20 dilution), mouse IFNAR1 (APC, Biolegend, #127314, 1:20 dilution), and mouse GP130 (PE, Biolegend, #149404, 1:100 dilution).

PC-3 cells [3] = experiment: Growth inhibition, CellTiter-Glo 2.0 (ATP); format: cell-based, human; conditions: PC-3 (prostate), 10 ng ml^−1 each, 6 days
Method: (§2) Parental and CRISPR-edited tumour cells were seeded in a cell density of 1800 (DU145), 2000 (PC-3), or 10,000 (MCF7) per well in 96-well CellCarrier plate (PelkinElmer, #6005550) filled with 50 µl culture media + 10% FBS. After 20–24 h incubation, the cells were treated with 10 ng ml^−1 of recombinant human IFNγ (R&D Systems, 285-IF-100), 10 ng ml^−1 of recombinant human TNFα (R&D Systems, 210-TA-020/CF) or a combination of both, by adding an equal volume of the complete culture media containing the cytokines. After incubating for 6 days without media change, the CellTiter-Glo 2.0 (Promega, G9243) or CellTiter-Fluor (Promega, G6082) assay were performed according to manufacturer’ instructions. The luminescence or fluorescence (Ex: 380–400 nm, Em: 505 nm) were detected by Inifinte M1000 PRO (Tecan). For CellTiter-Fluor, triplicate wells without cells were included to determine background fluorescence and the signal average was used for background substraction.

DU145 cells [4] = experiment: Growth inhibition, CellTiter-Glo 2.0 (ATP); format: cell-based, human; conditions: DU145 (prostate), 10 ng ml^−1 each, 6 days
Method: as §2

IFNγ
Phosphorylation of Tyr701-STAT1 (MCF7 cells): increased the cells’ response to IFNγ in a dose-dependent manner
Phosphorylation of Tyr701-STAT1 (PC-3 cells [1]): increased the cells’ response to IFNγ in a dose-dependent manner
Phosphorylation of Tyr701-STAT1 (DU145 cells [2]): increased the cells’ response to IFNγ in a dose-dependent manner
IFNγ concentration needed by parental and control cells for response comparable to Stub1-null cells (B16-F10 cells; B16-F10 (Fig. 1b, e)): at least tenfold higher concentration of IFNγ
MHC-I relative abundance compared to parental (B16-F10 cells; Parental, 0.10 ng ml-1, 24 h): 1.00
MHC-I relative abundance compared to parental (B16-F10 cells; Parental, 0.10 ng ml-1, 48 h): 1.00
Surface MHC-I (B16-F10 cells; Stub1-null vs parental and control B16-F10): significantly higher, IFNγ-dependent, MHC-I on cell surface
MHC-I relative abundance compared to parental (B16-F10 cells; clone 1A12 (gStub1 #2), 0.10 ng ml-1, 24 h): 3.60
MHC-I relative abundance compared to parental (B16-F10 cells; clone 1A12 (gStub1 #2), 0.10 ng ml-1, 48 h): 11.41
MHC-I relative abundance compared to parental (B16-F10 cells; clone 1B9, 0.10 ng ml-1, 24 h): 1.36
MHC-I relative abundance compared to parental (B16-F10 cells; clone 1B9, 0.10 ng ml-1, 48 h): 1.43
MHC-I relative abundance compared to parental (B16-F10 cells; clone 1D8, 0.10 ng ml-1, 24 h): 4.16
MHC-I relative abundance compared to parental (B16-F10 cells; clone 1D8, 0.10 ng ml-1, 48 h): 12.70
MHC-I relative abundance compared to parental (B16-F10 cells; clone 1D10 (gStub1 #1), 0.10 ng ml-1, 24 h): 4.42
MHC-I relative abundance compared to parental (B16-F10 cells; clone 1D10 (gStub1 #1), 0.10 ng ml-1, 48 h): 13.18
MHC-I relative abundance compared to parental (B16-F10 cells; clone 1E6, 0.10 ng ml-1, 24 h): 9.22
MHC-I relative abundance compared to parental (B16-F10 cells; clone 1E6, 0.10 ng ml-1, 48 h): 24.23
MHC-I relative abundance compared to parental (B16-F10 cells; clone 1G6, 0.10 ng ml-1, 24 h): 4.19
MHC-I relative abundance compared to parental (B16-F10 cells; clone 1G6, 0.10 ng ml-1, 48 h): 12.85
MHC-I relative abundance compared to parental (B16-F10 cells; clone 1G10, 0.10 ng ml-1, 24 h): 1.08
MHC-I relative abundance compared to parental (B16-F10 cells; clone 1G10, 0.10 ng ml-1, 48 h): 0.94
MHC-I relative abundance compared to parental (B16-F10 cells; clone 1H7, 0.10 ng ml-1, 24 h): 2.27
MHC-I relative abundance compared to parental (B16-F10 cells; clone 1H7, 0.10 ng ml-1, 48 h): 5.53
MHC-I relative abundance compared to parental (B16-F10 cells; clone 2B11, 0.10 ng ml-1, 24 h): 2.67
MHC-I relative abundance compared to parental (B16-F10 cells; clone 2B11, 0.10 ng ml-1, 48 h): 9.24
MHC-I relative abundance compared to parental (B16-F10 cells; clone 2E8 (gControl), 0.10 ng ml-1, 24 h): 0.75
MHC-I relative abundance compared to parental (B16-F10 cells; clone 2E8 (gControl), 0.10 ng ml-1, 48 h): 0.77
MHC-I relative abundance compared to parental (B16-F10 cells; clone 2E9, 0.10 ng ml-1, 24 h): 4.10
MHC-I relative abundance compared to parental (B16-F10 cells; clone 2E9, 0.10 ng ml-1, 48 h): 11.55
MHC-I relative abundance compared to parental (B16-F10 cells; clone 2F7, 0.10 ng ml-1, 24 h): 1.00
MHC-I relative abundance compared to parental (B16-F10 cells; clone 2F7, 0.10 ng ml-1, 48 h): 1.01
MHC-I relative abundance compared to parental (B16-F10 cells; clone 2H3, 0.10 ng ml-1, 24 h): 3.56
MHC-I relative abundance compared to parental (B16-F10 cells; clone 2H3, 0.10 ng ml-1, 48 h): 12.42
Growth inhibition of PTPN2- or STUB1-null cells (PC-3 cells [3]): sensitized PTPN2- or STUB1-null prostate tumour cells to growth inhibition
Growth inhibition of PTPN2- or STUB1-null cells (DU145 cells [4]): sensitized PTPN2- or STUB1-null prostate tumour cells to growth inhibition
